Assay results reported in PubChem BioAssay (NCI).
“And” between values parts separate entries of the source, which are not always exact repeats. Equal entries are not always repeated.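 In this assay, cells in 96-well plates receive the compound at five concentrations for 48 hours. Endpoints are linearly interpolated between the surrounding concentrations. GI50 = concentration required for 50% inhibition of growth. TGI: total growth inhibition.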

What was measured:
Experiment in all cases: growth of human tumour cells (NCI), 48 h
HCC-2998 colon = system: HCC-2998 colon
LOX IMVI melanoma = system: LOX IMVI melanoma
M14 melanoma = system: M14 melanoma
SF-268 CNS = system: SF-268 CNS
SNB-75 CNS = system: SNB-75 CNS
SW-620 colon = system: SW-620 colon
ACHN renal = system: ACHN renal
CCRF-CEM leukemia = system: CCRF-CEM leukemia
IGROV1 ovarian = system: IGROV1 ovarian
K-562 leukemia = system: K-562 leukemia

Structure (SMILES)	TGI (HCC-2998 colon)	TGI (LOX IMVI melanoma)	TGI (M14 melanoma)	TGI (SF-268 CNS)	TGI (SNB-75 CNS)	TGI (SW-620 colon)	GI50 (ACHN renal)	TGI (ACHN renal)	GI50 (CCRF-CEM leukemia)	TGI (CCRF-CEM leukemia)	GI50 (IGROV1 ovarian)	TGI (IGROV1 ovarian)	GI50 (K-562 leukemia)	TGI (K-562 leukemia)	GI50 (LOX IMVI melanoma)	GI50 (M14 melanoma)	GI50 (SF-268 CNS)	GI50 (SNB-75 CNS)	GI50 (SW-620 colon)	GI50 (HCC-2998 colon)
CC1=CC(N2C(=O)C(C)=CC2O)NC1=O (centres undefined)	> 100 µM	> 100 µM	> 100 µM	> 100 µM	> 100 µM	> 100 µM	–	–	–	–	–	–	–	–	–	–	–	–	–	–
COc1cc(-c2c(C#N)c(N)nc(N3CCOCC3)c2C#N)cc(OC)c1OC	–	> 100 µM	> 100 µM	> 100 µM	54.4 µM	> 100 µM	> 100 µM	> 100 µM	> 100 µM	> 100 µM	92.1 µM	> 100 µM	> 100 µM	> 100 µM	79.7 µM	> 100 µM	> 100 µM	1.64 µM	> 100 µM	–
C=C(C(=C)P(=S)(c1ccccc1)c1ccccc1)P(=S)(c1ccccc1)c1ccccc1	> 100 µM	–	> 100 µM	> 100 µM	> 100 µM	> 100 µM	–	> 100 µM	–	> 100 µM	–	> 100 µM	–	> 100 µM	–	–	–	–	–	–
CN(Cc1cc(Cl)cc(Cl)c1O)Cc1c(O)ccc2ccccc12	–	32.8 µM	39.2 µM	28.2 µM	33.3 µM	> 100 µM	–	31 µM	–	–	–	33.9 µM	–	61 µM	–	–	–	–	–	–
COC(=O)C1=C(C(=O)OC)C2(C)Nc3ccccc3C2=C(c2ccccc2)C1 (centres undefined)	64.2 µM	55.7 µM	31.8 µM	66.5 µM	–	69.6 µM	–	62.3 µM	–	47.4 µM	–	52.9 µM	–	47.8 µM	–	–	–	–	–	–
CC(=O)Nc1ccc(COC(O)CN2CCCCC2)cc1[N+](=O)[O-] (centres undefined)	> 100 µM	–	> 100 µM	> 100 µM	> 100 µM	> 100 µM	–	> 100 µM	–	> 100 µM	–	> 100 µM	–	> 100 µM	–	–	–	–	–	–
CC1(C)[C@@H](OC(=O)CCC(=O)O)CC[C@]2(C)[C@H]3C(=O)C=C4[C@@H]5C[C@@](C)(C(=O)O)CC[C@]5(C)CC[C@@]4(C)[C@]3(C)CC[C@@H]12	80.5 µM	–	129 µM	143 µM	83.5 µM	126 µM	63 µM	114 µM	52.4 µM	78.3 µM	55.8 µM	100 µM	56.2 µM	230 µM	–	58.4 µM	55.7 µM	55 µM	59.2 µM	56.1 µM
Cn1c(NCC(O)CN2CCCC2)cc(=O)n(C)c1=O (centres undefined)	> 100 µM	> 100 µM	–	> 100 µM	> 100 µM	> 100 µM	> 100 µM	> 100 µM	> 100 µM	> 100 µM	> 100 µM	> 100 µM	> 100 µM	> 100 µM	> 100 µM	–	> 100 µM	76.2 µM	> 100 µM	> 100 µM
CCCCCCCCCCCCCCCCC(=O)O.CCCCCCCCCCCCCCCCCC(=O)O.CCCCCCCCCCCCCCCCCC(=O)O.CCCCCCCCCCCCCCCCCC(=O)O.CCCCCCCCCCCCCCCCCC(=O)O.CO[CH-]OC12COC1CC(O)C1(C)C(O)C(OC(C)O)C3=C(C)C(OC(=O)C(O)C([NH-])c4ccccc4)CC(O)(C(OC(=O)c4ccccc4)C21)C3(C)C.[Cu+].[Zn].[Zn].[Zn].[Zn].[Zn] (centres undefined)	–	7.05 µM	–	6.25 µM	0.0211 µM	> 16.2 µM	0.272 µM	> 25 µM	0.0095 µM	> 17.7 µM	0.00711 µM	4.39 µM	0.005 µM	> 25 µM	0.00381 µM	–	–	< 0.0025 µM	0.00662 µM	0.00647 µM
c1ccc2cc(C[n+]3ccn(CCCCCCCCCCn4cc[n+](Cc5ccc6ccccc6c5)c4)c3)ccc2c1	5.13 µM	3.66 µM	15.7 µM	12.3 µM	–	11.2 µM	6.17 µM	80.3 µM	1.22 µM	2.97 µM	1.11 µM	3.08 µM	0.602 µM	2.97 µM	1.21 µM	2.76 µM	0.61 µM	–	1.57 µM	1.37 µM
N/N=c1\c2ccccc2c2cc3c(cc12)/c(=N/N)c1ccccc13	> 100 µM	–	> 100 µM	> 100 µM	> 100 µM	> 100 µM	–	> 100 µM	–	> 100 µM	–	> 100 µM	–	> 100 µM	–	–	–	–	–	–
COc1cc([C@@H]2C[C@H]2c2cc(SC)n[nH]2)cc(OC)c1OC	–	> 100 µM	28.5 µM	50 µM	> 100 µM	> 100 µM	30.3 µM	> 100 µM	19.4 µM	> 100 µM	18.3 µM	> 100 µM	21 µM	> 100 µM	93.9 µM	13.9 µM	15.1 µM	26.4 µM	26.9 µM	–
CC1(c2ccccc2)CC(c2cccc([N+](=O)[O-])c2)=NO1 (centres undefined)	> 100 µM	–	> 100 µM	> 100 µM	> 100 µM	> 100 µM	–	> 100 µM	–	–	–	> 100 µM	–	–	–	–	–	–	–	–
CC#CC1C2CCCC1(CSc1ccccc1)NC(=O)O2 (centres undefined)	> 100 µM	–	> 100 µM	> 100 µM	> 100 µM	> 100 µM	–	> 100 µM	–	–	–	> 100 µM	–	> 100 µM	–	–	–	–	–	–
Cc1c(O)c2c(c(O)c1Br)C(=O)C=CC2=O	3.31 µM and 3.82 µM	1.54 µM and 0.703 µM	1.11 µM and 2.28 µM	4.63 µM and 6.51 µM	2.85 µM and 5.07 µM	0.364 µM and 2.27 µM	0.489 µM	2.2 µM and 1.83 µM	–	–	–	3.05 µM and 3.56 µM	0.0599 µM	0.66 µM and 0.334 µM	0.215 µM	1.01 µM	–	2.1 µM	0.449 µM	–
NC(N)=N/N=C/c1ccc(-c2ccc(-c3cc(Cl)cc(Cl)c3)s2)cc1	3.83 µM	3.42 µM	3.53 µM	4.22 µM	–	3.34 µM	1.75 µM	3.29 µM	1.65 µM	4.62 µM	1.68 µM	3.36 µM	0.431 µM	1.79 µM	1.65 µM	1.75 µM	1.85 µM	–	1.66 µM	1.94 µM
